The source of these data is patent US20260325533A1, “CDK INHIBITOR COMPOUNDS” (ALEKSIA THERAPEUTICS, INC., priority 2023, published 2026).

Read-outs that look alike come from different tables or passages of the source.

Common to all, as to format: biochemical
One test deals with CDK1/CCNB1 (Homo sapiens, UniProt P06493). Kind of test: CDK1 homogeneous time-resolved fluorescence (HTRF) kinase assay. The settings on record: CDK1/CCNB. In outline:
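Read-out: TR-FRET (Eu anti-phospho-4E-BP1 Thr37/46 antibody, 2 nM; 665 nm or 665/615 ratio) after 60 min phosphorylation of 50 nM ULight-peptide by 0.5 nM CDK1/CCNB1 at 1 mM ATP, 23 °C. Compound preincubated 20 min with enzyme; 1% DMSO.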
Background: In TR-FRET formats the signal depends on donor and acceptor labels being close together.

For the next test, the target named is CDK4/CCND3 (Homo sapiens, UniProt P11802). Kind of test: CDK4 homogeneous time-resolved fluorescence (HTRF) kinase assay. The settings on record: CDK4/CCND. In outline:
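HTRF kinase assay, CDK4/CCND3 1.5 nM, ATP 1 mM, ULight-4E-BP1 peptide 50 nM, 23 °C, 60 min reaction after 20 min preincubation. Eu-anti-pThr37/46 antibody detection. 11-pt half-log curves from 10 μM → IC50.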

The next test has as its target CDK2/CCNE1 (Homo sapiens, UniProt P24941). Kind of test: CDK2 homogeneous time-resolved fluorescence (HTRF) kinase assay. The following applies: CDK2/CCNE. In outline:
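TR-FRET read-out (665 nm, or 665/615 ratio) of Eu-antibody detection of phospho-4E-BP1 (Thr37/46) ULight peptide. Enzyme 3 nM, ATP 1 mM, peptide 50 nM, 1% DMSO; 60 min reaction at 23 °C after 20 min compound preincubation. IC50 from 11-point half-log titrations, top typically 10 μM.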

For a further test, the target named is CDK6/CCND1 (Homo sapiens, UniProt Q00534). Kind of test: CDK6 homogeneous time-resolved fluorescence (HTRF) kinase assay. The following applies: CDK6/CCND. In outline: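 Recombinant CDK6/CCND1 (1 nM final) was preincubated with compound for 20 min at 23 °C in HEPES buffer with MgCl2, EGTA, DTT and Tween 20. Kinase reaction then ran 60 min at 23 °C with 1 mM ATP and 50 nM ULight-4E-BP1 (Thr37/46) peptide, and was stopped with EDTA.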
Sequence of CDK6/CCND1 (Q00534 whole entry): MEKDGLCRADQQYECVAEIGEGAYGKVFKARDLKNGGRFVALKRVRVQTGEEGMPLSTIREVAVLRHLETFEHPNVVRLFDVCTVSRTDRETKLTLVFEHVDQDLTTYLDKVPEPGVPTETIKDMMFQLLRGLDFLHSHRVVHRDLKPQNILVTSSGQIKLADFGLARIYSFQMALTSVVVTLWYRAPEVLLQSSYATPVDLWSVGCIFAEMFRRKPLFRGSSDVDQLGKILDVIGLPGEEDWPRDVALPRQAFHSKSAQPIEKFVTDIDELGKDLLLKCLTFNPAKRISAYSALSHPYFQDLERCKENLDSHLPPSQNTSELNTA
Sequence of CDK6/CCND1 (P24385 whole entry partner): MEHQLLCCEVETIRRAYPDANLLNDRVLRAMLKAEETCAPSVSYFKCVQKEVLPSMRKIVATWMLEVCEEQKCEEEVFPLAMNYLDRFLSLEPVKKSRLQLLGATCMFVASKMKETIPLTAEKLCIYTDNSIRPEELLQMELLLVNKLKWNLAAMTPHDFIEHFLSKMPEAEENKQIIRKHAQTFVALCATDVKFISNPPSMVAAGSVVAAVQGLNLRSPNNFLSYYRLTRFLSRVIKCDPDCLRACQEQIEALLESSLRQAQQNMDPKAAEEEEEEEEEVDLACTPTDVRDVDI

Setting [1] is: x = IC50 >250 nM, read-out: CDK1/CCNB IC50 (>250 nM column).
Where [2] appears, read: x = IC50 >250 nM, read-out: CDK4/CCND IC50 (>250 nM column).
Setting [3] is: x = IC50 25-250 nM, read-out: CDK2/CCNE IC50 (25-250 nM).
The mark [4] stands for this setting: x = IC50 >250 nM, read-out: CDK6/CCND IC50 (>250 nM column).
The mark [5] stands for this setting: x = IC50 25-250 nM, read-out: CDK4/CCND IC50 (25-250 nM).
Setting [6] is: x = IC50 <25 nM, read-out: CDK2/CCNE IC50 (<25 nM).
The mark [7] stands for this setting: x = IC50 25-250 nM, read-out: CDK6/CCND IC50 (25-250 nM).
The mark [8] stands for this setting: x = IC50 25-250 nM, read-out: CDK1/CCNB IC50 (25-250 nM).
[9] abbreviates: >250 nM, read-out: CDK1/CCNB IC50 >250 nM.
The mark [10] stands for this setting: 25-250 nM, read-out: CDK4/CCND IC50, 25-250 nM.
Setting [11] is: <25 nM, read-out: CDK2/CCNE IC50, <25 nM.
The mark [12] stands for this setting: 25-250 nM, 1 mM ATP, read-out: CDK6/CCND IC50, 25-250 nM.

Sequence of CDK4/CCND3 (P11802 whole entry): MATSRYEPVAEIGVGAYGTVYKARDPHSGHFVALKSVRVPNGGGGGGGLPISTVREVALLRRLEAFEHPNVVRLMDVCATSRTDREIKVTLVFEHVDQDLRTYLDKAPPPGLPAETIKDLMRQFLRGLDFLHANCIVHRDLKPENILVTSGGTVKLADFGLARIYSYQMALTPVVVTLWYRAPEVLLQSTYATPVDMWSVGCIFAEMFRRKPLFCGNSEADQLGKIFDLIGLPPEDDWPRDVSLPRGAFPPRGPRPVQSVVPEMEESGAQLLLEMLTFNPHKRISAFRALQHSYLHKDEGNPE
Sequence of CDK4/CCND3 (P30281 whole entry partner): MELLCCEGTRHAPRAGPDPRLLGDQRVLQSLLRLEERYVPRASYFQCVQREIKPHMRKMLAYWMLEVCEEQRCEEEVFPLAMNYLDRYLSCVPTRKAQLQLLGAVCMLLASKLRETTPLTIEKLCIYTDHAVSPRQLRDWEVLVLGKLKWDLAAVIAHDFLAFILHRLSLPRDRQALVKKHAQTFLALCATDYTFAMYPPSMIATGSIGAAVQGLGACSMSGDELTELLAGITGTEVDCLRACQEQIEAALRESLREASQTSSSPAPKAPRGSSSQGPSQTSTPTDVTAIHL
Sequence of CDK1/CCNB1 (P06493 whole entry): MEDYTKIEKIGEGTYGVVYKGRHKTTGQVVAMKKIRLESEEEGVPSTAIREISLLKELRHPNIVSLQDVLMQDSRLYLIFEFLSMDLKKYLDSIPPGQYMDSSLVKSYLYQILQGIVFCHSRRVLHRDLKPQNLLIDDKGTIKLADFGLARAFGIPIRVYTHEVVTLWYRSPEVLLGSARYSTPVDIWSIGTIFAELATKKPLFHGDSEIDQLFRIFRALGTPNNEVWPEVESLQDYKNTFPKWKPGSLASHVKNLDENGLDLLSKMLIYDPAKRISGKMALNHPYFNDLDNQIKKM
Sequence of CDK1/CCNB1 (P14635 whole entry partner): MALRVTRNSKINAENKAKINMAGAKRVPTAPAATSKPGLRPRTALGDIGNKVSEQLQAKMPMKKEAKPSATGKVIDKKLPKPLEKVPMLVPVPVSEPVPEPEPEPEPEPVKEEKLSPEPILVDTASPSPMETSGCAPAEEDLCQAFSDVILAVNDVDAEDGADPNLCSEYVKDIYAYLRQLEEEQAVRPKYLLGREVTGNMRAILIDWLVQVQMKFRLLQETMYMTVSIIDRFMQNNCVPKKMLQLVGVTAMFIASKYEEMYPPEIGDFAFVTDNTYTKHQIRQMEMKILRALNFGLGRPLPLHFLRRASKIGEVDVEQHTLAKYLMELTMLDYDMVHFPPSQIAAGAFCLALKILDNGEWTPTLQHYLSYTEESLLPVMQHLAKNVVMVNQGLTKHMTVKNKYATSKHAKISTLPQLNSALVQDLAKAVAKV

Consider `CN=S(C)(=O)c1ccc(Nc2cc3c(-c4ccc5c(cnn5CC(O)(C(F)(F)F)C(F)(F)F)c4C)nccc3cn2)cc1` (racemic) [Ex 470, methyl(4-((5-(4-methyl-1-(3,3,3-trifluoro-2-hydroxy-2-(trifluoromethyl)propyl)-1H-indazol-5-yl)-2,6-naphthyridin-3-yl)amino)phenyl)(methylimino)-l6-sulfanone], for which the IC50 at CDK1/CCNB1 (setting [1]) is above 250 nM; at CDK4/CCND3 (setting [2]), above 250 nM; at CDK2/CCNE1 (setting [3]) it was 25 to 250 nM; at CDK6/CCND1 (setting [4]), above 250 nM.
As to `CCS(=N)(=O)c1ccc(Nc2cc3c(-c4ccc5c(cnn5CC(O)(C(F)(F)F)C(F)(F)F)c4C)nccc3cn2)cc1` (racemic) [Ex 473, ethyl(imino)(4-((5-(4-methyl-1-(3,3,3-trifluoro-2-hydroxy-2-(trifluoromethyl)propyl)-1H-indazol-5-yl)-2,6-naphthyridin-3-yl)amino)phenyl)-l6-sulfanone], the IC50 on CDK1/CCNB1 (setting [1]) is above 250 nM; at CDK4/CCND3 (setting [5]), 25 to 250 nM; at CDK2/CCNE1 (setting [6]), below 25 nM; at CDK6/CCND1 (setting [7]), 25 to 250 nM.
For `CS(=O)(=O)c1ccc(Nc2cc3c(C#CC(O)CO)nccc3cn2)cc1` (racemic) [Ex 477, 4-(7-((4-(methylsulfonyl)phenyl)amino)-2,6-naphthyridin-1-yl)but-3-yne-1,2-diol], the IC50 on CDK1/CCNB1 (setting [1]) was above 250 nM; on CDK4/CCND3 (setting [2]), above 250 nM; on CDK2/CCNE1 (setting [6]) it was below 25 nM; at CDK6/CCND1 (setting [4]) it was above 250 nM.
Take `CCS(=N)(=O)c1ccc(Nc2cc3c(C#Cc4ccc5oc(=O)[nH]c5c4)nccc3cn2)cc1` (racemic) [Ex 479, 5-((7-((4-(ethylsulfonimidoyl)phenyl)amino)-2,6-naphthyridin-1-yl)ethynyl)benzo[d]oxazol-2(3H)-one]: the IC50 at CDK1/CCNB1 (setting [8]) is 25 to 250 nM; at CDK4/CCND3 (setting [5]) it was 25 to 250 nM; at CDK2/CCNE1 (setting [6]) it was below 25 nM; on CDK6/CCND1 (setting [7]), 25 to 250 nM.
Take `CCS(=N)(=O)c1ccc(Nc2cc3c(C#Cc4ccc(=O)[nH]n4)nccc3cn2)cc1` (racemic) [Ex 485, 6-((7-((4-(ethylsulfonimidoyl)phenyl)amino)-2,6-naphthyridin-1-yl)ethynyl)pyridazin-3(2H)-one]: the IC50 was above 250 nM at CDK1/CCNB1 (setting [1]), above 250 nM on CDK4/CCND3 (setting [2]), below 25 nM on CDK2/CCNE1 (setting [6]) and above 250 nM on CDK6/CCND1 (setting [4]).
In the case of `CCS(=N)(=O)c1ccc(Nc2cc3c(C#Cc4cccnc4N)nccc3cn2)cc1` (racemic) [Ex 489, (4-((5-((2-aminopyridin-3-yl)ethynyl)-2,6-naphthyridin-3-yl)amino)phenyl)(ethyl)(imino)-l6-sulfanone], the IC50 on CDK1/CCNB1 (setting [1]) is above 250 nM; on CDK4/CCND3 (setting [2]), above 250 nM; at CDK2/CCNE1 (setting [3]), 25 to 250 nM; on CDK6/CCND1 (setting [4]) it was above 250 nM.
Take `CS(=N)(=O)c1ccc(Nc2cc3c(C#Cc4ccc5oc(=O)[nH]c5c4)nccc3cn2)cc1` (racemic) [Ex 491, 5-((7-((4-(S-methylsulfonimidoyl)phenyl)amino)-2,6-naphthyridin-1-yl)ethynyl)benzo[d]oxazol-2(3H)-one]: the IC50 on CDK1/CCNB1 (setting [8]) was 25 to 250 nM; on CDK4/CCND3 (setting [5]) it was 25 to 250 nM; on CDK2/CCNE1 (setting [6]), below 25 nM; on CDK6/CCND1 (setting [7]) it was 25 to 250 nM; on CDK6/CCND1 (setting [4]) it was above 250 nM.
In the case of `CS(=N)(=O)c1ccc(Nc2cc3c(C#Cc4ccc(=O)[nH]n4)nccc3cn2)cc1` (racemic) [Ex 497, 6-((7-((4-(S-methylsulfonimidoyl)phenyl)amino)-2,6-naphthyridin-1-yl)ethynyl)pyridazin-3(2H)-one], the IC50 at CDK1/CCNB1 (setting [1]) is above 250 nM; on CDK4/CCND3 (setting [2]), above 250 nM; on CDK2/CCNE1 (setting [6]) it was below 25 nM; on CDK6/CCND1 (setting [4]), above 250 nM.
`CS(=N)(=O)c1ccc(Nc2cc3c(C#Cc4ccc(C#N)cc4)nccc3cn2)cc1` (racemic) [Ex 526, 4-((7-((4-(S-methylsulfonimidoyl)phenyl)amino)-2,6-naphthyridin-1-yl)ethynyl)benzonitrile]: the IC50 was above 250 nM at CDK1/CCNB1 (setting [1]), above 250 nM on CDK4/CCND3 (setting [2]), 25 to 250 nM at CDK2/CCNE1 (setting [3]) and above 250 nM on CDK6/CCND1 (setting [4]).
`CC(CCO)N1CCc2cc(-c3nccc4cnc(Nc5ccc(S(C)(=O)=O)cc5)cc34)ccc2C1` (racemic) [Ex 619, 3-(6-(7-((4-(methylsulfonyl)phenyl)amino)-2,6-naphthyridin-1-yl)-3,4-dihydroisoquinolin-2(1H)-yl)butan-1-ol]: the IC50 on CDK1/CCNB1 (setting [1]) was above 250 nM; at CDK4/CCND3 (setting [2]), above 250 nM; on CDK2/CCNE1 (setting [6]), below 25 nM; on CDK6/CCND1 (setting [7]), 25 to 250 nM.
For `CC(O)CN1CCc2cc(-c3nccc4cnc(Nc5ccc(S(C)(=O)=O)cc5)cc34)ccc2C1` (racemic) [Ex 628, 1-(6-(7-((4-(methylsulfonyl)phenyl)amino)-2,6-naphthyridin-1-yl)-3,4-dihydroisoquinolin-2(1H)-yl)propan-2-ol], the IC50 on CDK1/CCNB1 (setting [1]) is above 250 nM; at CDK4/CCND3 (setting [5]), 25 to 250 nM; on CDK2/CCNE1 (setting [6]), below 25 nM; on CDK6/CCND1 (setting [7]), 25 to 250 nM.
With `Cn1cc(C2CCN(c3nccc4cnc(Nc5ccc(S(C)(=O)=O)cc5)cc34)C2)cn1` (racemic) [Ex 654, 5-(3-(1-methyl-1H-pyrazol-4-yl)pyrrolidin-1-yl)-N-(4-(methylsulfonyl)phenyl)-2,6-naphthyridin-3-amine], the IC50 was above 250 nM at CDK1/CCNB1 (setting [1]); above 250 nM on CDK4/CCND3 (setting [2]); above 250 nM at CDK2/CCNE1 (x = IC50 >250 nM, read-out: CDK2/CCNE IC50 (>250 nM column)); above 250 nM at CDK6/CCND1 (setting [4]).
As for `Cc1c(-c2nccc3cnc(Nc4ccc(S(C)(=O)=O)cc4)cc23)ccc2c1cnn2CC(C)O` (racemic) [Ex 672, 1-(4-methyl-5-(7-((4-(methylsulfonyl)phenyl)amino)-2,6-naphthyridin-1-yl)-1H-indazol-1-yl)propan-2-ol], the IC50 at CDK1/CCNB1 (setting [8]) was 25 to 250 nM; at CDK4/CCND3 (setting [5]) it was 25 to 250 nM; on CDK2/CCNE1 (setting [6]), below 25 nM; on CDK6/CCND1 (setting [7]) it was 25 to 250 nM.
With `Cc1c(-c2nccc3cnc(Nc4ccc(S(C)(=O)=O)cc4)cc23)ccc2nn(CC(C)O)cc12` (racemic) [Ex 675, 1-(4-methyl-5-(7-((4-(methylsulfonyl)phenyl)amino)-2,6-naphthyridin-1-yl)-2H-indazol-2-yl)propan-2-ol], the IC50 at CDK1/CCNB1 (setting [1]) was above 250 nM; at CDK4/CCND3 (setting [2]), above 250 nM; at CDK2/CCNE1 (setting [3]) it was 25 to 250 nM; at CDK6/CCND1 (setting [4]) it was above 250 nM.
Consider `Cc1c(-c2nccc3cnc(Nc4ccc(S(=O)(=O)NC5CCCN(CCO)C5)cc4)cc23)ccc2c1cnn2CC(C)(C)O` (racemic) [Ex 760, 4-((5-(1-(2-hydroxy-2-methylpropyl)-4-methyl-1H-indazol-5-yl)-2,6-naphthyridin-3-yl)amino)-N-(1-(2-hydroxyethyl)piperidin-3-yl)benzenesulfonamide], for which the IC50 is above 250 nM at CDK1/CCNB1 (setting [9]), 25 to 250 nM at CDK4/CCND3 (setting [10]), below 25 nM on CDK2/CCNE1 (setting [11]) and 25 to 250 nM on CDK6/CCND1 (setting [12]).
As for `Cc1c(-c2nccc3cnc(Nc4ccc(S(=O)(=O)NC5CCCN(C)C5)cc4)cc23)ccc2c1cnn2CC(C)(C)O` (racemic) [Ex 761, 4-((5-(1-(2-hydroxy-2-methylpropyl)-4-methyl-1H-indazol-5-yl)-2,6-naphthyridin-3-yl)amino)-N-(1-methylpiperidin-3-yl)benzenesulfonamide], the IC50 was above 250 nM at CDK1/CCNB1 (setting [9]), 25 to 250 nM on CDK4/CCND3 (setting [10]), below 25 nM at CDK2/CCNE1 (setting [11]) and 25 to 250 nM on CDK6/CCND1 (setting [12]).
